Among the data in PubChem BioAssay AID1204 (EPA DSSTox, 2008) are relative binding affinity and outcome values, retold here.

Each structure is given as a SMILES string. Inconclusive results are not listed. The source made the active and inactive calls.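 Rule for the calls: active = relative estrogen receptor binding affinity above 1E-5, where estradiol scores 100; inconclusive = weak binder, under half inhibition at top dose, or affinity below 1E-5; inactive = no binding seen, affinity zero.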

This data set has as its system estrogen receptor (rat uterine cytosol). Briefly: DSSTox (NCTRER) National Center for Toxicological Research Estrogen Receptor Binding Database.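 For relative binding affinity: ratio of estradiol IC50 over compound IC50 times 100 so estradiol equals 100.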 The following applies: rat uterine cytosol ER competitive binding, RBA; for relative binding affinity: stronger effect = higher value. Put shortly: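 Relative binding affinity is the ratio of estradiol's IC50 to the test IC50, multiplied by 100, where E2 is 100. IC50s come from displacement of 1 nM radiolabelled E2 from rat uterine cytosol ER by 1 nM–1 mM competitor.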

Where [1] appears, read: ChemClass_ERB: Steroids With aromatic A ring.
The mark [2] stands for this setting: ChemClass_ERB: Diphenylmethanes DDTs.
The mark [3] stands for this setting: ChemClass_ERB: DES Hexestrol derivatives.
[4] abbreviates: ChemClass_ERB: Steroids Without aromatic A ring.
The mark [5] stands for this setting: ChemClass_ERB: Phytoestrogens Flavones.
The mark [6] stands for this setting: ChemClass_ERB: Phytoestrogens Chalconoids.

`Clc1ccc(-c2ccccc2Cl)cc1`: for the setting “ChemClass_ERB: Biphenyls PCBs”, the relative binding affinity is 0.00024%. With `CCOC(=O)/C=C/c1ccccc1`, where the note is “ChemClass_ERB: Misc”, the outcome was inactive.

On to `O=C(O)COc1cc(Cl)c(Cl)cc1Cl`, for which, where the note is “ChemClass_ERB: Misc”, the result was inactive.

In the case of `O=C(c1ccccc1O)c1ccccc1O`, the result (ChemClass_ERB: Diphenylmethanes Benzophenones) was inactive. Take `CC/C(=C(/CC)c1ccc(O)cc1)c1ccc(O)cc1`: the relative binding affinity (ChemClass_ERB: DES Derivatives) was 398%. `C[C@]12CC[C@@H]3c4ccccc4CC[C@H]3[C@@H]1CCC2=O`: under setting [1], the relative binding affinity is 0.0063%. With `Clc1ccc(C(c2ccc(Cl)cc2)C(Cl)Cl)cc1`, the outcome under setting [2] was inactive. Consider `C=CC(C)(O)CC/C=C(\C)CCC=C(C)C` (centres undefined), for which the result (ChemClass_ERB: Misc) was inactive.

As for `Oc1ccccc1Cc1ccccc1O`, the outcome (ChemClass_ERB: Diphenylmethanes Diphenolalkanes) was inactive. Regarding `Cc1cc(O)ccc1Cl`, the relative binding affinity (ChemClass_ERB: Phenols Alkyl) was 0.00041%.

Turning to `CC/C(=C(\c1ccccc1)c1ccc(OCCN(C)C)cc1)c1ccc(O)cc1`, the relative binding affinity (ChemClass_ERB: DES Triphenylethylenes) is 174%. `O=C1c2c(O)cc(O)cc2O[C@H](c2ccc(O)c(O)c2)[C@H]1O`: the result (ChemClass_ERB: Phytoestrogens Flavanones) was inactive. With `CCc1cccc(O)c1`, the relative binding affinity (ChemClass_ERB: Phenols Alkyl) is 0.00013%. `COc1ccc2[nH]cc(CCNC(C)=O)c2c1`: the result (ChemClass_ERB: Misc) was inactive. In the case of `CCC(c1ccc(C)cc1)C(CC)c1ccc(O)cc1` (centres undefined), the relative binding affinity under setting [3] was 3.98%. Take `C[C@]12CC[C@H]3[C@@H](CCC4=CC(=O)CC[C@@]43C)[C@@H]1CC[C@@H]2O`: the result under setting [4] was inactive.

Take `COC(=O)c1ccccc1C(=O)OC`: the outcome (ChemClass_ERB: Misc) was inactive. Same read-out and setting: under `CC(C)CCCCCCOC(=O)c1ccccc1C(=O)OCCCCCCC(C)C` stands “inactive”. `O=c1cc(-c2ccccc2)oc2cc(O)cc(O)c12`: the result under setting [5] was inactive.

As for `O=c1cc(-c2ccccc2)oc2cc(O)ccc12`, the result under setting [5] was inactive. For the compound `Clc1ccc(C(c2ccc(Cl)cc2)C(Cl)(Cl)Cl)cc1`, the result under setting [2] was inactive. As for `O=C(C(=O)c1ccc(O)cc1O)c1ccc(O)cc1O`, the relative binding affinity under setting [3] is 0.209%. Consider `NCCc1ccc(O)c(O)c1`, for which the result (ChemClass_ERB: Misc) was inactive. As to `CC(=O)[C@H]1CC[C@H]2[C@@H]3CCC4=CC(=O)CC[C@]4(C)[C@H]3CC[C@]12C`, the outcome under setting [4] was inactive.

As to `CC/C(=C(/CC)c1ccc(OC)cc1)c1ccc(OC)cc1`, the relative binding affinity (ChemClass_ERB: DES Derivatives) is 0.056%.

Turning to `O=C(/C=C/c1ccc(O)cc1)c1ccccc1`, the relative binding affinity under setting [6] was 0.00281%. With `C[C@]12CCC(=O)C=C1CC[C@@H]1[C@@H]2[C@@H](O)C[C@]2(C=O)[C@@H](C(=O)CO)CC[C@@H]12`, under setting [4], the outcome was inactive. On to `C[C@]12CC[C@@H]3c4ccc(O)c(O)c4CC[C@H]3[C@@H]1CC[C@@H]2O`, for which the relative binding affinity under setting [1] was 66.1%.

Take `O=C(/C=C/c1ccccc1)c1ccc(O)cc1`: the relative binding affinity under setting [6] was 0.0037%.
